Measurements as given in patent publication US12215092B2, “Pleiotropic pathway modifier compounds and method of treating diseases” (PPM BIOPHARMA LLC, priority 2023, dated 2025).
Entries after “also recorded” stand apart in the source; their conditions may differ.

Experiments:
Aiolos = Aiolos (Homo sapiens, UniProt Q9UKT9); assay: Automatic Western blot (Simple Western), targeted protein degradation: Aiolos; assay type: cell-based; conditions: 0.001-10 μM, 24 hours
Procedure: (§1) Targeted protein degradation in test samples were determined using the automated capillary-based nanoproteomic immunoassay Simple Western System (Protein Simple). Cultured cells were washed with cold PBS once and lysed in cold RIPA buffer supplemented with protease and phosphatase inhibitors. The solutions were then incubated at 4° C. for 30 minutes with gentle agitation to fully lyse cells. Each test sample was diluted at 0.4 mg/ml and mixed with 5× reducing buffer with fluorescent molecular weight (MW) standards. Afterwards the samples were heated to 95° C. for 5 minutes, and 5 μL samples were loaded into each capillary tube. Proteins were passed and separated through stacking and separation matrices for 30 minutes at 250 V. Proteins were then immobilized to capillary walls using optimal photoactivated capture chemistry. Following proteins immobilization, capillaries were flushed with a wash buffer and incubated with a blocking reagent for 6 min. Each target protein was probed with a specific primary antibody (diluted in blocking buffer and incubated for 38 min) and a horseradish peroxidase (HRP)-conjugated secondary antibody (ready to use solutions, incubated for 23 min). […] The resulting chemiluminescent signal was captured by a CCD camera, and signal intensities were analyzed using Compass Software (Protein Simple). […]

HDAC2 = HDAC2 (Homo sapiens, UniProt Q92769); assay: Automatic Western blot (Simple Western), targeted protein degradation: HDAC2; assay type: cell-based; conditions: 0.001-10 μM, 24 hours
Chain of HDAC2 (Q92769 whole entry): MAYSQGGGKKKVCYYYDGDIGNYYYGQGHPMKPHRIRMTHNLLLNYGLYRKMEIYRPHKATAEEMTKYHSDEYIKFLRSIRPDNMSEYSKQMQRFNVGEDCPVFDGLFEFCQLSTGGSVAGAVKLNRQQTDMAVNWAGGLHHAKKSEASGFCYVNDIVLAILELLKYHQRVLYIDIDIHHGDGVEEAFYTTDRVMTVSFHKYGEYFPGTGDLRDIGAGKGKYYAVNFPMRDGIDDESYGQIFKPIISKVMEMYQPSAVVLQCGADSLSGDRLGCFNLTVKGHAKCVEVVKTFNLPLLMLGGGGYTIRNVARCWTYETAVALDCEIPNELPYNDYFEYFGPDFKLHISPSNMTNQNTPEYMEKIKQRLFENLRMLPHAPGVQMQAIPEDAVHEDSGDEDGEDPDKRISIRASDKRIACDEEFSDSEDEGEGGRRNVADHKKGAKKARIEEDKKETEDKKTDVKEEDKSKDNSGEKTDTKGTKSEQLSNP
Procedure: (§2) Targeted protein degradation in test samples were determined using the automated capillary-based nanoproteomic immunoassay Simple Western System (Protein Simple). Cultured cells were washed with cold PBS once and lysed in cold RIPA buffer supplemented with protease and phosphatase inhibitors. The solutions were then incubated at 4° C. for 30 minutes with gentle agitation to fully lyse cells. Each test sample was diluted at 0.4 mg/ml and mixed with 5× reducing buffer with fluorescent molecular weight (MW) standards. Afterwards the samples were heated to 95° C. for 5 minutes, and 5 μL samples were loaded into each capillary tube. Proteins were passed and separated through stacking and separation matrices for 30 minutes at 250 V. Proteins were then immobilized to capillary walls using optimal photoactivated capture chemistry. Following proteins immobilization, capillaries were flushed with a wash buffer and incubated with a blocking reagent for 6 min. Each target protein was probed with a specific primary antibody (diluted in blocking buffer and incubated for 38 min) and a horseradish peroxidase (HRP)-conjugated secondary antibody (ready to use solutions, incubated for 23 min). A mixture of luminol and peroxide was added following manufacturer's protocol. The resulting chemiluminescent signal was captured by a CCD camera, and signal intensities were analyzed using Compass Software (Protein Simple).
(§3) 1H929 or Jurkat cells were treated with DMSO, the positive control pomalidomide (an FDA-approved immunomodulatory agent) or the selected test compound (compound 4) at indicated concentrations (0.001-10 μM) for 24 hours. […] Ikaros and other proteins (Table 1),

c-MYC = c-MYC (Homo sapiens, UniProt P01106); assay: Automatic Western blot (Simple Western), targeted protein degradation: c-MYC; assay type: cell-based; conditions: for c-MYC in H929 cells (targeted protein degradation / expression): H929 human myeloma cells
Chain of c-MYC (P01106 whole entry): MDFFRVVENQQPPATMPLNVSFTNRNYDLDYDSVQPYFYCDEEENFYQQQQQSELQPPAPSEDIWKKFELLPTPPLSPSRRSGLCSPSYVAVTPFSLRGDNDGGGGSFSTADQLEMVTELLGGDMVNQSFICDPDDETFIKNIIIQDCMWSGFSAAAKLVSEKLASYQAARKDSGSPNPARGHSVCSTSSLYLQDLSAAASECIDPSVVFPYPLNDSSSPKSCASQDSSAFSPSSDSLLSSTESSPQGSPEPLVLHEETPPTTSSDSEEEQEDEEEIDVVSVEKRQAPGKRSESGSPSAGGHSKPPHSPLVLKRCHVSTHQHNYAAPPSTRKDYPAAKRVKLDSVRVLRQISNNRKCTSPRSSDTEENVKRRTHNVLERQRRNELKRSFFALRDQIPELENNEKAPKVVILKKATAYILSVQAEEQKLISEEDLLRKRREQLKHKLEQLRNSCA
Procedure: as §2, §3

target protein = assay: Targeted protein degradation in H929 and Jurkat cells (overall statement); assay type: cell-based; conditions: H929 human multiple myeloma cells and Jurkat human leukemia cells, concentration dependent
Procedure: as §1

Poly (I:C) induced PBMC = assay: Luminex-based multiplex cytokine assay, Poly (I:C) induced PBMC; assay type: cell-based, human; conditions: concentration-dependent (FIG. 5)
[1] = system: human solid tissue cancer cells; assay: Cancer cell proliferation assay (CellTiter-Glo), solid tumors; assay type: cell-based; conditions: 3 days, concentration-dependent (FIG. 1)
Procedure: (§4) The cell proliferation of cancer cells was assessed using the CellTiter-Glo Luminescent Cell Viability Assay (Promega), per the manufacturer's protocol.
(§5) Briefly, in 96-well flat-bottom white-walled multiwell cell culture plates the control wells containing 100 μL/well medium without cells were used to obtain a value for background luminescence. For treatment wells, cells were seeded at 5,000 in 50 μL/well of complete RPMI-1640 medium and then mixed with 50 μL/well of the vehicle control (0.1% DMSO) or test compounds at indicated concentrations. Following cell incubation for 3 days at 37° C. in a humidified 5% CO2 incubator, the plates were equilibrated at room temperature for approximately 30 minutes. 100 μL of CellTiter-Glo® Reagent were added into each well and then contents were mixed for 2 minutes on an orbital plate shaker to induce cell lysis. After the plates were incubated at room temperature for 10 minutes, luminescent signals of each well were recorded with a Tecan M200 Plate Reader (Tecan Trading AG, Switzerland).
(§6) The following human cancer cells originated from various tissues were used to test the antiproliferative activity of PPM compounds (Table 2). […] The EC50 values for each test compounds were calculated using GraphPad Prizm. […]

SEB induced PBMC = assay: Luminex-based multiplex cytokine assay, SEB induced PBMC; assay type: cell-based, human; conditions: concentration-dependent (FIG. 7)
[2] = system: human hematopoietic cancer cells; assay: Cancer cell proliferation assay (CellTiter-Glo), blood cancer cells; assay type: cell-based; conditions: 3 days, concentration-dependent (FIG. 2)
Procedure: as §4, §5, §6

LPS induced PBMC = assay: Luminex-based multiplex cytokine assay, LPS induced PBMC; assay type: cell-based, human; conditions: concentration-dependent (FIG. 6)
HDAC = assay: In situ HDAC activity fluorometric assay in cancer cells; assay type: cell-based, human; conditions: 24 h treatment, concentration dependent (FIG. 8)
Procedure: In Situ HDAC Activity Fluorometric Kit was purchased from Abcam and performed according to the manufacturer instructions. The cells (20,000) were seeded in a black walled 96-well plate and let to adhere overnight, then treated with DMSO or PPM compounds at indicated concentrations for 24 hrs. The media was then replaced with an HDAC substrate (acetylated peptide) dissolved in media and cells incubated for 3 hrs under cell culture conditions, followed by addition of the developer for 30 min to stop the reaction. The fluorescence was measured at Ex/Em=368/442 nm.

CRBN = CRBN (Homo sapiens, UniProt Q96SW2); assay: Automatic Western blot (Simple Western), targeted protein degradation: CRBN; assay type: cell-based; conditions: 0.001-10 μM, 24 hours
Chain of CRBN (Q96SW2 whole entry): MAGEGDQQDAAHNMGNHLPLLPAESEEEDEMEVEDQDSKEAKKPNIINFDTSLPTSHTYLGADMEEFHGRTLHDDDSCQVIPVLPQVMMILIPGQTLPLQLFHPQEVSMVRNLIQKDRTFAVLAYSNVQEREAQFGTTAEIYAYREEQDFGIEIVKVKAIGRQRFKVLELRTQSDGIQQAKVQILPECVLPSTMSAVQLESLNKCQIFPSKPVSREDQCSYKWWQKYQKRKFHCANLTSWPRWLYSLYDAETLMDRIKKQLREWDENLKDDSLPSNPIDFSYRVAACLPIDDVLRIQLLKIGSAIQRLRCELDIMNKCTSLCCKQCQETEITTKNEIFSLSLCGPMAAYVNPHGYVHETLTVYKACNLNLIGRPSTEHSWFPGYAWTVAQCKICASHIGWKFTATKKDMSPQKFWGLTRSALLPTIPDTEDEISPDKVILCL
Procedure: as §1

Eos = Eos (Homo sapiens, UniProt Q9H2S9); assay: Automatic Western blot (Simple Western), targeted protein degradation: Eos; assay type: cell-based; conditions: 0.001-10 μM, 24 hours
Chain of Eos (Q9H2S9 whole entry): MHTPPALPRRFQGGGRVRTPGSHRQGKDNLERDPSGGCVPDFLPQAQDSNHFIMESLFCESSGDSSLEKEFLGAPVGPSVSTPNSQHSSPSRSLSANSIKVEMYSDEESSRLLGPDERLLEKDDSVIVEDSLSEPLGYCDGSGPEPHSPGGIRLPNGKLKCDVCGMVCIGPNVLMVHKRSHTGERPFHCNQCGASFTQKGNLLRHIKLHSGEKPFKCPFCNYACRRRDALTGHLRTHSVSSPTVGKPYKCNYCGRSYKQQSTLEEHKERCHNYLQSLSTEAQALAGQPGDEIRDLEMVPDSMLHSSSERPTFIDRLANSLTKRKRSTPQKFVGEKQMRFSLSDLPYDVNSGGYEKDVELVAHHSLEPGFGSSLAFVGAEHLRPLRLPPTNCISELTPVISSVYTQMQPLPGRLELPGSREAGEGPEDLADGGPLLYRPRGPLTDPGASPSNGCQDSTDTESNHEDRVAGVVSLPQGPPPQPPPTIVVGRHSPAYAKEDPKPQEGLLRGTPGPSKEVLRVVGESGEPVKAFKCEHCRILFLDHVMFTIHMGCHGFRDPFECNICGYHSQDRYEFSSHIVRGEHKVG
Procedure: as §1

Ikaros = Ikaros (Homo sapiens, UniProt Q13422); assay: Automatic Western blot (Simple Western), targeted protein degradation: Ikaros; assay type: cell-based; conditions: 0.001-10 μM, 24 hours
Chain of Ikaros (Q13422 whole entry): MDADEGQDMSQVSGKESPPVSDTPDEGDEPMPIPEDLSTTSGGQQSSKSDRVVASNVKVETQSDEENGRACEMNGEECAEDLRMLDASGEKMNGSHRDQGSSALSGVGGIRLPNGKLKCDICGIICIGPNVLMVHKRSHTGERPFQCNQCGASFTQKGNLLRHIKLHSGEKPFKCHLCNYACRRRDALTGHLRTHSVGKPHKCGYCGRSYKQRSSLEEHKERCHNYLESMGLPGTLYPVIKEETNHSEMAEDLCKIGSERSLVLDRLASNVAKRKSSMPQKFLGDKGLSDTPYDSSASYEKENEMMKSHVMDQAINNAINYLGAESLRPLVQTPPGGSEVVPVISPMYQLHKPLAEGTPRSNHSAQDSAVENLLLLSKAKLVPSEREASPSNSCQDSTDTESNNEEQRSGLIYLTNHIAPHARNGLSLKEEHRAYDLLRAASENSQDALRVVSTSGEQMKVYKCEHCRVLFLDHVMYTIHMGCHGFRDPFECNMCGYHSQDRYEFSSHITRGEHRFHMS
Procedure: as §2, §3

GAPDH = assay: Automatic Western blot (Simple Western): GAPDH (sample loading control); assay type: cell-based, human; conditions: 0.001-10 μM, 24 hours
Procedure: as §2, §3

Chain of Aiolos (Q9UKT9 whole entry): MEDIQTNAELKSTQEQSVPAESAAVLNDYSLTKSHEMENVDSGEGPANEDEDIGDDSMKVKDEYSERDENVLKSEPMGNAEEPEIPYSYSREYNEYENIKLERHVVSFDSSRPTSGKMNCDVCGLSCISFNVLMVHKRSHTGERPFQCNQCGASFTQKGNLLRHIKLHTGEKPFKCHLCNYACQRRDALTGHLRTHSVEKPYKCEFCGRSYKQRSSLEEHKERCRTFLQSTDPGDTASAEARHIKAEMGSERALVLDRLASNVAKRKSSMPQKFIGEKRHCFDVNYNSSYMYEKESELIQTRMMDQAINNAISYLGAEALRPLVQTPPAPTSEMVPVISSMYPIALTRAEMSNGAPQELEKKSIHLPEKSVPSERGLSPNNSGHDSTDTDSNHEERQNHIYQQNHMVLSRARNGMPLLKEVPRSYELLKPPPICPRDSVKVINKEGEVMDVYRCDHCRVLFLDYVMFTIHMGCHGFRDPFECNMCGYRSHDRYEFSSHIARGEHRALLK

O=C(CCCCc1ccc(C(=O)NCc2ccc3c(c2)CN(C2CCC(=O)NC2=O)C3=O)cc1)NO (stereo not drawn) [Compound 4, N-((2-(2,6-dioxopiperidin-3-yl)-1-oxoisoindolin-5-yl)methyl)-4-(5-(hydroxyamino)-5-oxopentyl)benzamide]
Aiolos in Jurkat cells (targeted protein degradation) (Aiolos): degraded
HDAC2 in H929 cells (targeted protein degradation / expression) (HDAC2): reduced c-MYC and HDAC expression; also recorded: reduced HDAC2 expression
HDAC2 in H929 cells (targeted protein degradation / expression) (HDAC2; listed as compound 4): degraded
levels of HDAC2 (HDAC2; H929 or Jurkat cells): clearly reduced
HDAC2 in Jurkat cells (targeted protein degradation) (HDAC2; Jurkat cells): degraded
Compound-induced c-MYC degradation after pretreatment with the proteosome inhibitor bortezomib (c-MYC; H929 cells, bortezomib pretreatment): prevented
c-MYC in H929 cells (targeted protein degradation / expression) (c-MYC; 0.001-10 μM, 24 hours): reduced c-MYC and HDAC expression
c-MYC in H929 cells (targeted protein degradation / expression) (c-MYC; 0.001-10 μM, 24 hours, listed as compound 4): degraded
levels of c-MYC (c-MYC; H929 or Jurkat cells, 0.001-10 μM, 24 hours): clearly reduced
c-MYC in Jurkat cells (targeted protein degradation) (c-MYC; Jurkat cells, 0.001-10 μM, 24 hours): degraded
target protein degradation (target protein): caused target protein degradation
cytokine production from Poly (I:C) induced PBMC (Poly (I:C) induced PBMC): suppressed cytokine production
proliferation of human solid tissue cancer cells [1]: selectively suppressed the proliferation
cytokine production from SEB induced PBMC (SEB induced PBMC): enhanced cytokine production
proliferation of human hematopoietic cancer cells [2]: selectively suppressed the proliferation
cytokine production from LPS induced PBMC (LPS induced PBMC): suppressed cytokine production
intracellular HDAC activity in human cancer cells (HDAC): inhibit intracellular HDAC activity; also recorded: suppressed intracellular HDAC activity
CRBN in H929 cells (targeted protein degradation) (CRBN; H929 cells): degraded
CRBN in Jurkat cells (targeted protein degradation) (CRBN; Jurkat cells): degraded
Eos in Jurkat cells (targeted protein degradation) (Eos): degraded
Ikaros in H929 cells (targeted protein degradation) (Ikaros; H929 cells): degraded
levels of Ikaros (Ikaros; H929 or Jurkat cells): clearly reduced
Ikaros in Jurkat cells (targeted protein degradation / expression) (Ikaros): reduced Ikaros expression
Ikaros in Jurkat cells (targeted protein degradation / expression) (Ikaros; listed as compound 4): degraded
GAPDH in H929 cells (expression, loading control) (GAPDH): no effect
GAPDH in H929 cells (expression, loading control) (GAPDH; listed as compound 4): No effect
GAPDH in Jurkat cells (expression, loading control) (GAPDH; Jurkat cells): No effect
